# Measured values reported in the supplement of paper PMC10331698.
# ± gives the standard deviation of the averaged measurements.
# What was measured:
# Assay in all cases: level (log10 ratio to DMSO vehicle control); higher = higher biomarker level / cell amount than vehicle control
# [1] = compound: O=C(O)C(F)(F)C(F)(F)C(F)(F)C(F)(F)C(F)(F)C(F)(F)C(F)(F)C(F)(F)F [Perfluorononanoic acid] (in DMSO)
# Protocol: (§1)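 BioMAP Diversity Plus panel of 12 human primary cell co-culture systems (3C, 4H, LPS, SAg, BT, BF4T, BE3C, CASM3C, HDF3CGF, KF3CT, MyoF, Mphg). Compounds were added 1 h before stimulation and left for 24 h (MyoF 48 h; BT 72 h for soluble read-outs or 6 d for IgG). Biomarkers were read by ELISA, cytotoxicity by SRB, PBMC viability and proliferation by Alamar Blue. Each well value was divided by the mean of 8 DMSO control wells on the same plate and log10 transformed; duplicate blinded samples were tested at 4 concentrations.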
# [2] = compound: O=C(O)CCC(F)(C(F)(F)F)C(F)(F)F [4,4-bis(Trifluoromethyl)-4-fluoropropanoic acid] (in DMSO)
# Protocol: as §1
# [3] = compound: O=C(O)C(F)(F)C(F)(F)C(F)(F)C(F)(F)C(=O)O [Octafluoroadipic acid] (in DMSO)
# Protocol: as §1
# [4] = compound: O=C(O)C(F)(F)OC(F)(F)C(F)(F)OC(F)(F)C(F)(F)OC(F)(F)C(F)(F)C(F)(F)C(F)(F)F [Perfluoro-3,6,9-trioxatridecanoic acid] (in DMSO); conditions: 6700 nM
# Protocol: as §1
# [5] = compound: CCOC(=O)CC(=O)C(F)(F)C(F)(F)F [Ethyl pentafluoropropionyl acetate] (in DMSO)
# Protocol: as §1
# [6] = compound: NS(=O)(=O)C(F)(F)C(F)(F)C(F)(F)C(F)(F)C(F)(F)C(F)(F)C(F)(F)C(F)(F)F [Perfluorooctanesulfonamide] (in DMSO)
# Protocol: as §1
# [7] = compound: O=C(O)C(F)(OC(F)(F)C(F)(F)C(F)(F)F)C(F)(F)F [Ammonium perfluoro-2-methyl-3-oxahexanoate] (in Water)
# Protocol: as §1
# [8] = compound: O=S(=O)(O)CCC(F)(F)C(F)(F)C(F)(F)C(F)(F)C(F)(F)C(F)(F)C(F)(F)C(F)(F)F [8:2 Fluorotelomer sulfonic acid] (in DMSO)
# Protocol: as §1
Test System,level (log10) ([1]; 6700 nM),level (log10) ([1]; 20000 nM),level (log10) ([2]; 6700 nM),level (log10) ([2]; 20000 nM),level (log10) ([2]; 60000 nM),level (log10) ([3]; 6700 nM),level (log10) ([3]; 20000 nM),level (log10) ([3]; 60000 nM),level (log10) [4],level (log10) ([5]; 6700 nM),level (log10) ([5]; 20000 nM),level (log10) ([5]; 60000 nM),level (log10) ([6]; 6700 nM),level (log10) ([6]; 20000 nM),level (log10) ([7]; 6700 nM),level (log10) ([7]; 20000 nM),level (log10) ([7]; 60000 nM),level (log10) ([8]; 6700 nM),level (log10) ([8]; 20000 nM),level (log10) ([8]; 60000 nM)
LPS:sTNF-alpha,-0.0115 ± 0.028,0.0115 ± 0.025,-0.046 ± 0.045,-0.013 ± 0.05,-0.003 ± 0.018,-0.0035 ± 0.0035,0.0155 ± 0.005,0.0125 ± 0.018,-0.019 ± 0.024,0.0125 ± 0.015,0.0095 ± 0.0064,0.0085 ± 0.012,0.007 ± 0.0042,-0.0245 ± 0.00071,-0.068 ± 0.021,-0.0375 ± 0.043,-0.0225 ± 0.033,0.0095 ± 0.011,-0.006 ± 0.0099,-0.212 ± 0.12
3C:Proliferation,0.0095 ± 0.073,0.0795 ± 0.03,-0.05 ± 0.051,-0.015 ± 0.058,0.0345 ± 0.03,-0.0705 ± 0.005,0.016 ± 0.013,-0.007 ± 0.03,0.0425 ± 0.016,-0.0145 ± 0.043,-0.033 ± 0.011,-0.0135 ± 0.026,-0.039 ± 0.0099,-0.208 ± 0.02,-0.0765 ± 0.015,-0.136 ± 0.031,-0.149 ± 0.023,0.004 ± 0.086,-0.0315 ± 0.083,-0.053 ± 0.018
BT:sIL-17A,-0.05 ± 0.0085,0.0015 ± 0.022,-0.037 ± 0.064,0.087 ± 0.054,-0.019 ± 0.19,-0.0875 ± 0.044,0.0075 ± 0.064,0.128 ± 0.092,0.0515 ± 0.14,-0.088 ± 0.0014,-0.0195 ± 0.032,-0.0685 ± 0.081,-0.0315 ± 0.16,0.0435 ± 0.052,0.001 ± 0.02,0.036 ± 0.037,-0.174 ± 0.096,-0.152 ± 0.057,-0.012 ± 0.013,-0.0805 ± 0.16
BF4T:PAI-I,-0.0145 ± 0.03,-0.007 ± 0.028,-0.002 ± 0.014,-0.01 ± 0.013,0.008 ± 0.011,-0.0045 ± 0.026,-0.011 ± 0.013,0.007 ± 0.0071,-0.011 ± 0.011,0.0015 ± 0.011,0.004 ± 0.011,-0.0025 ± 0.011,-0.004 ± 0.011,-0.038 ± 0.0099,-0.004 ± 0.0028,0.001 ± 0.0042,0.005 ± 0.0028,0.005 ± 0.0099,0.002 ± 0.011,0.009 ± 0.0042
BF4T:CD106/VCAM-1,-0.084 ± 0.086,-0.129 ± 0.035,0.018 ± 0.011,-0.011 ± 0.031,-0.0445 ± 0.0021,-0.01 ± 0.0014,-0.0095 ± 0.016,0.002 ± 0.048,-0.205 ± 0.067,-0.0035 ± 0.016,0.0155 ± 0.013,-0.037 ± 0.031,-0.052 ± 0.0057,-0.1125 ± 0.00071,-0.0735 ± 0.039,-0.018 ± 0.0085,-0.008 ± 0.0014,0.0035 ± 0.035,-0.0285 ± 0.03,-0.041 ± 0.0028
BE3C:CXCL11/I-TAC,-0.01 ± 0.016,-0.0315 ± 0.044,0.0195 ± 0.016,0.0015 ± 0.012,-0.006 ± 0.0099,-0.0025 ± 0.0078,0.0085 ± 0.012,0.0085 ± 0.0078,-0.992 ± 0.025,0.002 ± 0.028,0.002 ± 0.0099,-0.0015 ± 0.0078,-0.0565 ± 0.013,-0.183 ± 0.06,-0.011 ± 0.0057,0.0115 ± 0.0021,-0.0045 ± 0.0078,0.0385 ± 0.0021,0.016 ± 0.0071,-0.0915 ± 0.015
LPS:CD40,-0.0305 ± 0.019,-0.039 ± 0.011,0.005 ± 0.027,-0.0115 ± 0.021,-0.0385 ± 0.0035,-0.0035 ± 0.04,-0.005 ± 0.0071,-0.0245 ± 0.0064,-0.015 ± 0.024,0.015 ± 0.0014,-0.0245 ± 0.015,-0.0335 ± 0.0064,-0.0635 ± 0.018,-0.115 ± 0.0042,-0.014 ± 0.018,-0.0145 ± 0.016,-0.045 ± 0.03,0.037 ± 0.016,-0.0195 ± 0.021,-0.128 ± 0.024
BF4T:IL-1alpha,-0.043 ± 0.0099,-0.029 ± 0.025,-0.0005 ± 0.0092,-0.0135 ± 0.019,0.003 ± 0.031,-0.003 ± 0.0014,-0.016 ± 0.0042,0.002 ± 0.0014,-0.055 ± 0.013,0.017 ± 0.021,0.0035 ± 0.018,0.0315 ± 0.0035,0.0095 ± 0.012,-0.0455 ± 0.022,0.018 ± 0.03,0.0055 ± 0.036,-0.0085 ± 0.021,0.004 ± 0.016,-0.01 ± 0.014,0.0065 ± 0.018
BF4T:Keratin 8/18,-0.0155 ± 0.016,0.0075 ± 0.023,-0.0015 ± 0.0064,-0.032 ± 0.051,-0.0015 ± 0.03,0.002 ± 0.023,-0.004 ± 0.021,0.004 ± 0.037,-0.0195 ± 0.079,0.0085 ± 0.005,0.0275 ± 0.052,0.002 ± 0.016,-0.0085 ± 0.005,-0.069 ± 0.023,-0.0205 ± 0.0078,-0.008 ± 0.035,-0.022 ± 0.014,0.004 ± 0.0099,-0.0005 ± 0.018,0.0245 ± 0.0078
BT:sTNF-alpha,-0.002 ± 0.038,0.0115 ± 0.073,-0.0135 ± 0.22,-0.051 ± 0.12,-0.031 ± 0.16,0.0535 ± 0.17,0.028 ± 0.17,0.116 ± 0.02,-0.0035 ± 0.057,-0.124 ± 0.17,0.017 ± 0.072,-0.0495 ± 0.07,-0.045 ± 0.13,-0.11 ± 0.15,-0.035 ± 0.037,0.013 ± 0.034,0.0045 ± 0.093,0.006 ± 0.095,0 ± 0.0071,0.009 ± 0.034
SAg:CD40,-0.0285 ± 0.044,-0.057 ± 0.02,-0.0495 ± 0.073,-0.0245 ± 0.077,-0.055 ± 0.089,-0.0135 ± 0.015,-0.013 ± 0.023,-0.025 ± 0.016,-0.0155 ± 0.043,0.005 ± 0.0028,-0.0205 ± 0.0021,-0.0275 ± 0.0035,-0.028 ± 0.0042,-0.1085 ± 0.00071,-0.019 ± 0.013,-0.017 ± 0.0014,-0.0555 ± 0.077,-0.013 ± 0.051,-0.0215 ± 0.021,-0.071 ± 0.051
BF4T:CCL2/MCP-1,-0.0115 ± 0.029,-0.154 ± 0.026,0.016 ± 0.0028,0.026 ± 0.018,0.0015 ± 0.016,0.0145 ± 0.012,-0.011,0.0225 ± 0.057,-0.155 ± 0.11,-0.006 ± 0.011,-0.0145 ± 0.00071,-0.0015 ± 0.0078,-0.084 ± 0.0071,-0.0565 ± 0.018,0.007 ± 0.031,0.005 ± 0.048,0.0285 ± 0.021,0.037 ± 0.023,-0.019 ± 0.0028,-0.002 ± 0.034
BF4T:CXCL8/IL-8,0.048 ± 0.0028,0.0165 ± 0.00071,-0.0085 ± 0.03,0.028 ± 0.028,0.0115 ± 0.0021,0.0435 ± 0.0021,-0.0005 ± 0.021,0.013 ± 0.05,0.0165 ± 0.049,0.0095 ± 0.012,-0.0015 ± 0.023,0.021 ± 0.011,0.003 ± 0.0057,0.0405 ± 0.013,-0.0135 ± 0.036,0.0295 ± 0.028,0.0255 ± 0.03,0.0015 ± 0.0035,-0.0105 ± 0.0078,-0.0055 ± 0.0078
